From PMC9719863 (Molecular Metabolism, 2022)
Read-outs that look alike come from different tables or passages of the source. *1 amine or outer side, *2 acyl side, *3 side chain or, on linkers, in order; H or OH if unused. Where a SMILES comes first, the peptide text is derived from it. Side-chain parts run from the residue outwards. [ ]: non-standard residue; d: D form. The star is where a group is joined. γGlu = O=C(O)[C@H](CCC(=O)[*:2])N[*:1]; Palmitoyl = CCCCCCCCCCCCCCCC(=O)*; PhLac = O=C(O)[C@@H](O)Cc1ccccc1

Assays:
hGIPR [1] = target: T1, hGIPR (Homo sapiens, UniProt P48546); test: cAMP CRE-luciferase assay in BHK cells expressing GIPR; assay type: cell-based; settings: agonist mode, without native ligand
T1 sequence (P48546 22-466): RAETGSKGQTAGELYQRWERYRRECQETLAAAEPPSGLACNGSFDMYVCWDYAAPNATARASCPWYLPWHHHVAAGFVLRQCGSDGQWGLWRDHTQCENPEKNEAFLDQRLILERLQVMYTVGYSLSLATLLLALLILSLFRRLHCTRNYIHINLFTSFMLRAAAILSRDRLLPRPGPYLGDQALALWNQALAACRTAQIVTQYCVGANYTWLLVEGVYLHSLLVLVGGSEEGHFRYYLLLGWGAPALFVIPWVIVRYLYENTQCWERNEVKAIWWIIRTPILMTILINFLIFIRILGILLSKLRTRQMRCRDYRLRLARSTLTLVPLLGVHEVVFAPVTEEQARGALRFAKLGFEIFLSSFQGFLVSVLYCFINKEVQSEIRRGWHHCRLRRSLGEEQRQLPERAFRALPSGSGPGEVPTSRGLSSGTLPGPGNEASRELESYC

mGIPR [2] = target: T2, mGIPR (Mus musculus, UniProt Q0P543); test: as above; assay type: cell-based; settings: for Agonism at the mGIPR (cAMP production by peptide alone): agonist mode, without native ligand
T2 sequence (Q0P543 19-460): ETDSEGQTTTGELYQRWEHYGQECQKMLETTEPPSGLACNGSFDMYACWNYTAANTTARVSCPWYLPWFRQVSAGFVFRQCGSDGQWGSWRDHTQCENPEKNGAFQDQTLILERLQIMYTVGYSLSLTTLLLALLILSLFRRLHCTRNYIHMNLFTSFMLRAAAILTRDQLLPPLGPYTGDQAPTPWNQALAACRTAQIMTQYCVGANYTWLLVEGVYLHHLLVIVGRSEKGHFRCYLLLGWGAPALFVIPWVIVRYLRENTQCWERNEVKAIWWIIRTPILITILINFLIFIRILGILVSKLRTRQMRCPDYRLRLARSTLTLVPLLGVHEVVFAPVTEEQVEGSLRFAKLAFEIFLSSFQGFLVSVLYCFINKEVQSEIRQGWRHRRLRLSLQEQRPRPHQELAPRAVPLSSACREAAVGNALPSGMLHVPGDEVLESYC

hGIPR [3] = target: T1, hGIPR; assay type: binding
mGIPR [4] = target: T2, mGIPR; assay type: binding

Row | Compound | Agonism at the hGIPR (cAMP production by peptide alone) (hGIPR [1]) | Agonism at the mGIPR (cAMP production by peptide alone) (mGIPR [2]) | IC50 (hGIPR [3]) | IC50 (mGIPR [4]) | IC50 (mGIPR [2])
1 | CCCCCCCCCCCCCCCC(=O)N[C@@H](CCC(=O)NCCCC[C@H](NC(=O)[C@H](Cc1ccc(O)cc1)NC(=O)[C@H](CC(=O)O)NC(=O)[C@H](CO)NC(=O)[C@@H](NC(=O)[C@@H](O)Cc1ccccc1)[C@@H](C)CC)C(=O)N[C@H](C(=O)N[C@@H](C)C(=O)N[C@@H](CC(C)C)C(=O)N[C@@H](CC(=O)O)C(=O)N[C@@H](CCCCN)C(=O)N[C@H](C(=O)N[C@@H](CCCNC(=N)N)C(=O)N[C@@H](CCC(N)=O)C(=O)N[C@@H](CCC(N)=O)C(=O)N[C@@H](CCC(=O)O)C(=O)N[C@@H](Cc1ccccc1)C(=O)N[C@H](C(=O)N[C@@H](CC(N)=O)C(=O)N[C@@H](Cc1c[nH]c2ccccc12)C(=O)N[C@@H](CC(C)C)C(=O)N[C@@H](CC(C)C)C(=O)N[C@@H](C)C(=O)N[C@@H](CCC(N)=O)C(=O)N[C@@H](CCCCN)C(=O)NCC(=O)O)C(C)C)[C@@H](C)CC)[C@@H](C)CC)C(=O)O [Peptide 8, [Pla6, L14, R18, E21] hGIP(6–31)-K11 (γE-C16)] (H-[PhLac]ISDYK([γGlu-Palmitoyl])IALDKIRQQEFVNWLLAQKG-OH) | negligible cAMP production as agonists | negligible cAMP production as agonists | 0.5 ± 0.08 nM | 1.55 ± 0.07 nM | 
2 | CC[C@H](C)[C@H](NC(=O)[C@H](CO)NC(=O)[C@H](Cc1ccc(O)cc1)NC(=O)[C@H](CC(=O)O)NC(=O)[C@H](CO)NC(=O)[C@@H](NC(=O)[C@H](Cc1ccccc1)NC(=O)[C@@H](NC(=O)CNC(=O)[C@@H](N)CCC(=O)O)[C@@H](C)O)[C@@H](C)CC)C(=O)N[C@@H](C)C(=O)N[C@@H](CCSC)C(=O)N[C@@H](CC(=O)O)C(=O)N[C@@H](CCCCN)C(=O)N[C@H](C(=O)N[C@@H](Cc1c[nH]cn1)C(=O)N[C@@H](CCC(N)=O)C(=O)N[C@@H](CCC(N)=O)C(=O)N[C@@H](CC(=O)O)C(=O)N[C@@H](Cc1ccccc1)C(=O)N[C@H](C(=O)N[C@@H](CC(N)=O)C(=O)N[C@@H](Cc1c[nH]c2ccccc12)C(=O)N[C@@H](CC(C)C)C(=O)N[C@@H](CC(C)C)C(=O)N[C@@H](C)C(=O)N[C@@H](CCC(N)=O)C(=O)N[C@@H](CCCCN)C(N)=O)C(C)C)[C@@H](C)CC [Peptide 1, hGIP(3–30), reference compound] | partial agonism | no significant agonism |  | 35.1 ± 16.9 nM | > 6000 nM
3 | CC[C@H](C)[C@H](NC(=O)[C@H](CO)NC(=O)[C@H](Cc1ccc(O)cc1)NC(=O)[C@H](CC(=O)O)NC(=O)[C@H](CO)NC(=O)[C@@H](NC(=O)[C@@H](O)Cc1ccccc1)[C@@H](C)CC)C(=O)N[C@@H](C)C(=O)N[C@@H](CC(C)C)C(=O)N[C@@H](CC(=O)O)C(=O)N[C@@H](CCCCN)C(=O)N[C@H](C(=O)N[C@@H](CCCNC(=N)N)C(=O)N[C@@H](CCC(N)=O)C(=O)N[C@@H](CCC(N)=O)C(=O)N[C@@H](CCC(=O)O)C(=O)N[C@@H](Cc1ccccc1)C(=O)N[C@H](C(=O)N[C@@H](CC(N)=O)C(=O)N[C@@H](Cc1c[nH]c2ccccc12)C(=O)N[C@@H](CC(C)C)C(=O)N[C@@H](CC(C)C)C(=O)N[C@@H](C)C(=O)N[C@@H](CCC(N)=O)C(=O)N[C@@H](CCCCN)C(=O)NCC(=O)O)C(C)C)[C@@H](C)CC [Peptide 5, [Pla6, L14, R18, E21] hGIP(6–31)] (H-[PhLac]ISDYSIALDKIRQQEFVNWLLAQKG-OH) | no significant agonism | no significant agonism | 2.98 ± 1.68 nM | 22.7 ± 7.9 nM | 
